Test results reported in patent US20040019188A1, “Targeting through integrins” (priority 2000, published 2004).

Columns and labels:
HEp-2 cells [1] = assay: Competitive inhibition of HEp-2 cell attachment to fibronectin coated wells; type: cell-based, human
Experimental: (§1) Cells were harvested with trypsin-EDTA and resuspended in medium containing soybean trypsin inhibitor. After centrifugation, the cell pellet was resuspended in medium containing 20 mM HEPES pH 7.5, 4 g/l BSA. For inhibition studies, 3×10^4 cells were incubated with increasing concentrations of SPKR4-inv protein for 30 min at 22° C.

HEp-2 cells [2] = assay: Competitive inhibition of HEp-2 cell attachment to (SPKR)4inv coated wells; type: cell-based, human; settings: wells coated with (SPKR)4inv
Experimental: as §1

Substance: RGDS
- ID30 compared with (SPKR)4inv (HEp-2 cells [1]; fibronectin coated wells): three orders of magnitude higher
- ID30 (concentration of competitor that results in 30% inhibition of cell attachment) (HEp-2 cells [1]; wells coated with fibronectin): 170 µM
- ID30 (concentration of competitor that results in 30% inhibition of cell attachment) (HEp-2 cells [2]): 170 µM

Substance: A3β1: Recombinant soluble α3β1 integrin (Eble, 1998)
- ID30 (concentration of competitor that results in 30% inhibition of cell attachment) (HEp-2 cells [2]): 0.050 µM
